Tests used:
[1] = system: mice; assay: Elevated plus-maze test for mice; type: in vivo, ICR male mice; settings: 10 mg/kg intragastric for 1 week; in words
Experimental: 247 ICR male mice aged 6-8 weeks with the weight of 18-22 g were taken and fed adaptively for 1 week. Then, these mice were evenly divided, at random, into 19 groups based on their weights. Intragastric administration was conducted once a day according to the drugs and dosages listed in Table 1, which lasted for 7 consecutive days. 20 minutes after administration on the 7th day, the elevated plus-maze test was conducted.
The elevated plus-maze (EPM) for mice were composed of two opposite open arms (50 cm×10 cm) and two opposite enclosed arms (50 cm×10 cm×40 cm), wherein upper portions of the enclosed arms were not capped, an open portion of 10 cm×10 cm was located in the middle of the maze, and the maze was 50 cm away from the ground. The test was conducted in a quite environment at a time period ranging from 13:00 to 18:00.
The open-arms entries (OE) and enclosed-arms entries, as well as the residence time in two arms, of the mice, within 5 minutes, were recorded respectively, and the percentage of the open-arms entries (OE %) and that of the open-arms time (OT %) for each group of mice with respect to the total entries into the two arms and the total residence time in the two arms therein were calculated respectively.
Analysis was conducted using SPSS 11.5 software, and data were represented by x±S, the significance of differences between groups was compared using the analysis of variance, differences were significant while P was less than 0.05.

[2] = system: rats; assay: Drinking conflict experiment for rats (Vogel test); type: in vivo, SD male rats; settings: for Effect on water licks of the rats during the punished session compared with the solvent control groups: 5 mg/kg intragastric for 10 days, in words; for Water licks of rats during punished session: 5 mg/kg intragastric once a day for 10 days, test half an hour after final administration, 3 minutes, 0.3 mA, x±S
Experimental: 230 SD male rats with the weight of 180-220 g were taken and fed adaptively for 1 week. Then, these rats were divided, at random, into 19 groups based on their weights, 12-13 rats in each group. Intragastric administration was conducted one a day according to the drugs and dosages listed in Table 2, which lasted for 10 consecutive days. Water deprivation 48 hours before the final administration, and non-punitive drinking training was conducted on the 9th day; on the 10th day, half an hour after the final intragastric administration of all the groups, the punitive experimental test was conducted.
On the first stage (non-punitive drinking training): after water deprivation for 24 hours, the rats were placed in operation boxes individually to explore thoroughly, until they found bottle mouths and began to lick water, water licks of the rats within 3 minutes under the conditions of no electric shock (the condition was set as follows: the strength of electric shock was 0 mA) were automatically recorded by counters, and rats whose water licks were less than 300 were eliminated. On the second stage (punitive experiment): the above rats which were not eliminated were placed in the operation boxes after continuing the water deprivation for 24 hours (48 hours in total). The rats could find the bottle mouths rapidly and begin to lick water, the instruments began to time automatically and imparted one electric shock (the ratio of licks to the number of electric shocks was 20:1) while the water licks reached to 20, wherein the strength of electric shocks was 0.3 mA, lasting for 2 seconds, but these rats may control the length of the time for which they were electrically shocked by keeping away from the bottle mouths. Water licks of the rats during the punished session (3 minutes) were recorded.
Observational indexes of the Vogel drinking conflict model: water licks of the rats during the punished session.

Row | Compound | Effect on open-arms entries of the mice compared with the solvent control groups [1] | Effect on open-arms time of the mice compared with the solvent control groups [1] | Effect on water licks of the rats during the punished session compared with the solvent control groups [2] | Water licks of rats during punished session [2]
1 | O=C(/C=C/c1cc(O)c(O)c(C(F)(F)F)c1)N1CCCCC1 [III-9, 3′,4′-dihydroxyl-5′-trifluoromethyl-cinnamyl piperidine] | increase the open-arms entries of the mice | prolong their open-arms time | increase water licks of the rats during the punished session | 363.56 ± 39.70
2 | CC(C)CNC(=O)/C=C/c1cc(I)c2c(c1)OCO2 [II-3, 5′-iodine-3′,4′-methylenedioxy cinnamic acid isobutylamide] | increase the open-arms entries of the mice | prolong their open-arms time | increase water licks of the rats during the punished session | 483.75 ± 59.05
3 | CC(C)CNC(=O)CCc1cc(O)c(O)c(C(F)(F)F)c1 [III-10, 3-(3′,4′-dihydroxyl-5′-trifluoromethylphenyl)-propionic acid isobutylamide] | increase the open-arms entries of the mice | prolong their open-arms time | increase water licks of the rats during the punished session | 369.00 ± 44.83
